Experimental data taken from ChEMBL document CHEMBL1201862, “PubChem BioAssay data set” (2004).
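1) Cells in 96-well plates. 2) Compound, 48 h, 5 concentrations. 3) Linear interpolation between surrounding doses. 4) Unreached endpoint = highest concentration. GI50 = concentration required for 50% inhibition of growth.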 Calls of active or inactive are those of the source. No stated cut-off is given here; in the data, active = GI50 up to about 1.1 µM and inactive = higher.

Experiments:
Assay in all cases: DTP human tumour cell line panel, 48 h
ACHN = system: ACHN
SNB-75 = system: SNB-75
UACC-62 = system: UACC-62
DU-145 = system: DU-145
HOP-62 = system: HOP-62
MCF7 = system: MCF7
SF-295 = system: SF-295
SK-MEL-28 = system: SK-MEL-28
OVCAR-8 = system: OVCAR-8
786-0 = system: 786-0
Malme-3M = system: Malme-3M
SK-MEL-2 = system: SK-MEL-2
SK-MEL-5 = system: SK-MEL-5
LOX IMVI = system: LOX IMVI
SF-539 = system: SF-539
BT-549 = system: BT-549
IGROV-1 = system: IGROV-1
KM12 = system: KM12
SF-268 = system: SF-268
SR = system: SR
Hs-578T = system: Hs-578T
A549 = system: A549
SN12C = system: SN12C
EKVX = system: EKVX
UACC-257 = system: UACC-257
SW-620 = system: SW-620
CCRF-CEM = system: CCRF-CEM
A498 = system: A498
NCI/ADR-RES = system: NCI/ADR-RES
HCT-116 = system: HCT-116
UO-31 = system: UO-31
RXF 393 = system: RXF 393
NCI-H460 = system: NCI-H460
NCI-H23 = system: NCI-H23
SK-OV-3 = system: SK-OV-3
T47D = system: T47D
M14 = system: M14
HOP-92 = system: HOP-92
SNB-19 = system: SNB-19
NCI-H522 = system: NCI-H522
HT-29 = system: HT-29
CAKI-1 = system: CAKI-1
NCI-H226 = system: NCI-H226
RPMI-8226 = system: RPMI-8226
MOLT-4 = system: MOLT-4
K562 = system: K562
MDA-MB-435 = system: MDA-MB-435
OVCAR-4 = system: OVCAR-4
PC-3 = system: PC-3
OVCAR-3 = system: OVCAR-3
U-251 = system: U-251
MDA-MB-231 = system: MDA-MB-231
HCT-15 = system: HCT-15
TK-10 = system: TK-10
OVCAR-5 = system: OVCAR-5
COLO 205 = system: COLO 205
MDA-N = system: MDA-N
HCC 2998 = system: HCC 2998
HL-60 = system: HL-60

Cc1cc(NN)nc2[nH]nc(N)c12
GI50 (ACHN): > 100 µM (inactive)
GI50 (SNB-75): > 100 µM (inactive)
GI50 (UACC-62): > 100 µM (inactive)
GI50 (DU-145): > 100 µM (inactive)
GI50 (HOP-62): > 100 µM (inactive)
GI50 (MCF7): > 100 µM (inactive)
GI50 (SF-295): > 100 µM (inactive)
GI50 (SK-MEL-28): > 100 µM (inactive)
GI50 (OVCAR-8): > 100 µM (inactive)
GI50 (786-0): > 100 µM (inactive)
GI50 (Malme-3M): > 100 µM (inactive)
GI50 (SK-MEL-2): > 100 µM (inactive)
GI50 (SK-MEL-5): > 100 µM (inactive)
GI50 (LOX IMVI): > 100 µM (inactive)
GI50 (SF-539): > 100 µM (inactive)
GI50 (BT-549): > 100 µM (inactive)
GI50 (IGROV-1): > 100 µM (inactive)
GI50 (KM12): > 100 µM (inactive)
GI50 (SF-268): > 100 µM (inactive)
GI50 (SR): 69.5 µM (inactive)
GI50 (Hs-578T): > 100 µM (inactive)
GI50 (A549): > 100 µM (inactive)
GI50 (SN12C): > 100 µM (inactive)
GI50 (EKVX): > 100 µM (inactive)
GI50 (UACC-257): > 100 µM (inactive)
GI50 (SW-620): > 100 µM (inactive)
GI50 (CCRF-CEM): > 100 µM (inactive)
GI50 (A498): > 100 µM (inactive)
GI50 (NCI/ADR-RES): > 100 µM (inactive)
GI50 (HCT-116): > 100 µM (inactive)
GI50 (UO-31): > 100 µM (inactive)
GI50 (RXF 393): > 100 µM (inactive)
GI50 (NCI-H460): > 100 µM (inactive)
GI50 (NCI-H23): > 100 µM (inactive)
GI50 (SK-OV-3): > 100 µM (inactive)
GI50 (T47D): > 100 µM (inactive)
GI50 (M14): > 100 µM (inactive)
GI50 (HOP-92): > 100 µM (inactive)
GI50 (SNB-19): > 100 µM (inactive)
GI50 (NCI-H522): > 100 µM (inactive)
GI50 (HT-29): > 100 µM (inactive)
GI50 (CAKI-1): > 100 µM (inactive)
GI50 (NCI-H226): > 100 µM (inactive)
GI50 (RPMI-8226): > 100 µM (inactive)
GI50 (MOLT-4): 43.3 µM (inactive)
GI50 (K562): > 100 µM (inactive)
GI50 (MDA-MB-435): 93.1 µM (inactive)
GI50 (OVCAR-4): > 100 µM (inactive)
GI50 (PC-3): > 100 µM (inactive)
GI50 (OVCAR-3): > 100 µM (inactive)
GI50 (U-251): > 100 µM (inactive)
GI50 (MDA-MB-231): 45.4 µM (inactive)
GI50 (HCT-15): > 100 µM
GI50 (TK-10): > 100 µM (inactive)
GI50 (OVCAR-5): > 100 µM (inactive)
GI50 (COLO 205): > 100 µM (inactive)

CC(=O)C1C(=O)C(=O)N(c2ccc([N+](=O)[O-])cc2)C1=O (centres undefined)
GI50 (ACHN): > 100 µM (inactive)
GI50 (SNB-75): > 100 µM (inactive)
GI50 (UACC-62): > 100 µM (inactive)
GI50 (DU-145): > 100 µM (inactive)
GI50 (HOP-62): > 100 µM (inactive)
GI50 (MCF7): > 100 µM (inactive)
GI50 (SF-295): > 100 µM (inactive)
GI50 (SK-MEL-28): > 100 µM (inactive)
GI50 (OVCAR-8): > 100 µM (inactive)
GI50 (786-0): > 100 µM (inactive)
GI50 (SK-MEL-2): 66.2 µM (inactive)
GI50 (SK-MEL-5): > 100 µM (inactive)
GI50 (LOX IMVI): > 100 µM (inactive)
GI50 (SF-539): > 100 µM (inactive)
GI50 (BT-549): > 100 µM (inactive)
GI50 (IGROV-1): > 100 µM (inactive)
GI50 (KM12): > 100 µM (inactive)
GI50 (SF-268): > 100 µM (inactive)
GI50 (MDA-N): > 100 µM (inactive)
GI50 (Hs-578T): > 100 µM (inactive)
GI50 (A549): 80.4 µM (inactive)
GI50 (SN12C): > 100 µM (inactive)
GI50 (EKVX): > 100 µM (inactive)
GI50 (UACC-257): > 100 µM (inactive)
GI50 (SW-620): > 100 µM (inactive)
GI50 (CCRF-CEM): > 100 µM (inactive)
GI50 (NCI/ADR-RES): > 100 µM (inactive)
GI50 (HCC 2998): > 100 µM (inactive)
GI50 (HCT-116): > 100 µM (inactive)
GI50 (UO-31): > 100 µM (inactive)
GI50 (RXF 393): > 100 µM (inactive)
GI50 (NCI-H460): > 100 µM (inactive)
GI50 (NCI-H23): > 100 µM (inactive)
GI50 (SK-OV-3): > 100 µM (inactive)
GI50 (M14): > 100 µM (inactive)
GI50 (HOP-92): > 100 µM (inactive)
GI50 (SNB-19): > 100 µM (inactive)
GI50 (NCI-H522): > 100 µM (inactive)
GI50 (HT-29): > 100 µM (inactive)
GI50 (CAKI-1): > 100 µM (inactive)
GI50 (NCI-H226): > 100 µM (inactive)
GI50 (MOLT-4): > 100 µM (inactive)
GI50 (HL-60): > 100 µM (inactive)
GI50 (MDA-MB-435): > 100 µM (inactive)
GI50 (OVCAR-4): > 100 µM (inactive)
GI50 (PC-3): 52.7 µM (inactive)
GI50 (OVCAR-3): > 100 µM (inactive)
GI50 (U-251): > 100 µM (inactive)
GI50 (MDA-MB-231): > 100 µM (inactive)
GI50 (HCT-15): > 100 µM
GI50 (TK-10): > 100 µM (inactive)
GI50 (OVCAR-5): > 100 µM (inactive)
GI50 (COLO 205): > 100 µM (inactive)
